Data: ChEMBL document CHEMBL1201862, “PubChem BioAssay data set” (2004)
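Briefly, cells in 96-well plates were exposed to five compound concentrations for 48 h, and endpoints were estimated by linear interpolation. GI50: concentration for 50% inhibition of growth.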 Calls of active or inactive are those of the source. No stated cut-off is given here; in the data, active = GI50 up to about 1.1 µM and inactive = higher.

Legend:
Test in all cases: growth of human tumour cells (NCI), 48 h
[1] = test system: NCI-H23
[2] = test system: RXF 631
[3] = test system: EKVX
[4] = test system: HOP-92
[5] = test system: UACC-257
[6] = test system: DMS-114
[7] = test system: LOX IMVI
[8] = test system: M19-MEL
[9] = test system: OVCAR-8
[10] = test system: Malme-3M
[11] = test system: HOP-62
[12] = test system: RPMI-8226
[13] = test system: KM-20L2
[14] = test system: NCI-H460
[15] = test system: HL-60
[16] = test system: KM12
[17] = test system: SNB-78
[18] = test system: NCI-H522
[19] = test system: UACC-62
[20] = test system: 786-0
[21] = test system: SK-MEL-2
[22] = test system: COLO 205
[23] = test system: CCRF-CEM
[24] = test system: M14
[25] = test system: ACHN
[26] = test system: XF498
[27] = test system: SK-MEL-5
[28] = test system: OVCAR-4
[29] = test system: SF-539
[30] = test system: HCC 2998
[31] = test system: CAKI-1
[32] = test system: SW-620
[33] = test system: TK-10
[34] = test system: HCT-15
[35] = test system: RXF 393
[36] = test system: UO-31
[37] = test system: SN12C
[38] = test system: OVCAR-5
[39] = test system: SK-OV-3
[40] = test system: SF-295
[41] = test system: MOLT-4
[42] = test system: SNB-75
[43] = test system: OVCAR-3
[44] = test system: K562
[45] = test system: DMS-273
[46] = test system: LXFL 529
[47] = test system: SF-268
[48] = test system: IGROV-1
[49] = test system: SK-MEL-28
[50] = test system: A549
[51] = test system: SNB-19

Cc1nn(-c2ccccc2)c(-c2ccccc2[N+](=O)[O-])c1CC#N
GI50 [1]: 87.7 µM (inactive)
GI50 [2]: > 100 µM (inactive)
GI50 [3]: > 100 µM (inactive)
GI50 [4]: 27.8 µM (inactive)
GI50 [5]: > 100 µM (inactive)
GI50 [6]: 98.6 µM (inactive)
GI50 [7]: > 100 µM (inactive)
GI50 [8]: > 100 µM (inactive)
GI50 [9]: > 100 µM (inactive)
GI50 [10]: 29.4 µM (inactive)
GI50 [11]: > 100 µM (inactive)
GI50 [12]: 63.2 µM (inactive)
GI50 [13]: > 100 µM (inactive)
GI50 [14]: > 100 µM (inactive)
GI50 [15]: 69.5 µM (inactive)
GI50 [16]: > 100 µM (inactive)
GI50 [17]: > 100 µM (inactive)
GI50 [18]: 22.2 µM (inactive)
GI50 [19]: 78.5 µM (inactive)
GI50 [20]: > 100 µM (inactive)
GI50 [21]: > 100 µM (inactive)
GI50 [22]: > 100 µM (inactive)
GI50 [23]: > 100 µM (inactive)
GI50 [24]: > 100 µM (inactive)
GI50 [25]: > 100 µM (inactive)
GI50 [26]: 21.5 µM (inactive)
GI50 [27]: 7.87 µM (inactive)
GI50 [28]: > 100 µM (inactive)
GI50 [29]: > 100 µM (inactive)
GI50 [30]: > 100 µM (inactive)
GI50 [31]: > 100 µM (inactive)
GI50 [32]: > 10 µM (inactive)
GI50 [33]: > 100 µM (inactive)
GI50 [34]: > 100 µM
GI50 [35]: 45 µM (inactive)
GI50 [36]: 82.2 µM (inactive)
GI50 [37]: > 100 µM (inactive)
GI50 [38]: > 100 µM (inactive)
GI50 [39]: > 100 µM (inactive)
GI50 [40]: > 100 µM (inactive)
GI50 [41]: 67.3 µM (inactive)
GI50 [42]: > 100 µM (inactive)
GI50 [43]: 62.1 µM (inactive)
GI50 [44]: 59.2 µM (inactive)
GI50 [45]: > 100 µM (inactive)
GI50 [46]: > 100 µM (inactive)
GI50 [47]: > 100 µM (inactive)
GI50 [48]: > 100 µM (inactive)
GI50 [49]: > 100 µM (inactive)
GI50 [50]: > 100 µM (inactive)
GI50 [51]: > 100 µM (inactive)
